Patent US20160008277A1, “CO-PACKAGED DRUG PRODUCTS” (Lightlake Therapeutics Inc., priority 2014, published 2016)
Like-named read-outs stand apart in the source and are kept apart here.

Columns and labels:
[1] = tested on: suspected opiate overdose; conditions: cited from earlier work
[2] = for Cmax/D, GLSM: dose adjustment to 0.4 mg
[3] = Safety of intranasal naloxone in humans (Study 1): nasal irritation, vital signs, ECG, clinical laboratory; format: in vivo, human
Protocol: These vital signs and temperature were also measured at screening, clinic intake, one day after each dosing session and at follow-up. […] AEs were recorded from the start of study-drug administration until clinic discharge. […] Clinical laboratory measurements were done prior to the first drug administration and on the day of clinic release.
Statistical Analysis of Adverse Events: AEs were coded using the most recent version of the Medical Dictionary for Regulatory Activities (MedDRA). Preferred terms and are grouped by system, organ, class (SOC) designation. AEs are presented as a listing including the start date, stop date, severity, relationship, outcome, and duration.

[4] = 2 mg nasal solution dose; cited from earlier work
overdose events = conditions: cited from earlier work
opiate addicts = conditions: cited from earlier work
[5] = tested on: patients with suspected narcotic overdose; conditions: cited from earlier work
heroin overdose = conditions: cited from earlier work
[6] = Safety of intranasal naloxone in humans (Study 2): nasal irritation, adverse events, vital signs, ECG; format: in vivo, human
Text: Specifically, the study had several objectives.
AEs were coded using the most recent version of the Medical Dictionary for Regulatory Activities (MedDRA) preferred terms and grouped by system, organ, class (SOC) designation. Separate summaries will be provided for the 5 study periods: after the administration of each dose of study drug up until the time of the next dose of study drug or clinic discharge. Listings of each individual AE including start date, stop date, severity, relationship, outcome, and duration were provided. Results are given below in Tables 12 and 13.

[7] = tested on: patients with suspected opioid overdose; conditions: cited from earlier work
clinical = conditions: human, plasma; for AUC(0-t): AUC0-t; for AUC(0-inf): AUC0-∞
[8] = im, 0.4 mg, GLSM, 0.4 mg IM, no dose adjustment
[9] = other: intranasal, 2 mg, GLSM, 2 mg IN, no dose adjustment
[10] = other: intranasal, 2 mg, Mean, 2 mg IN
[11] = other: intranasal, 4 mg, GLSM, 4 mg IN, no dose adjustment
[12] = other: intranasal, 4 mg, Mean, 4 mg IN

## C=CCN1CC[C@]23c4c5ccc(O)c4O[C@H]2C(=O)CC[C@@]3(O)[C@H]1C5 [naloxone, 17-allyl-4,5a-epoxy-3,14-dihydroxymorphinan-6-one]
[1]; 2 mg IM group
  patients with more than 10 spontaneous respirations per minute within 8 minutes: 82%
[1]; 2 mg IN group
  patients with more than 10 spontaneous respirations per minute within 8 minutes: 63%
[1]; IM group
  patients needing rescue naloxone: 13%
[1]; IN group
  patients needing rescue naloxone: 26%
[2]; 0.4 mg IM
  λz, Mean: 0.593 h⁻¹
  Cmax/D, GLSM: 0.755 ng/mL
[2]; 2 mg IN
  λz, Mean: 0.588 h⁻¹
  Cmax/D, GLSM: 0.510 ng/mL
[2]; 2 mg IN versus IM
  Frel, Mean: 0.571
[2]; 4 mg IN versus IM
  Frel, Mean: 0.475
[2]; 4 mg IN
  Cmax/D, GLSM: 0.466 ng/mL
[3]; 2 mg IN dose
  Pharyngeal pain: One subject experienced mild transient (over 3 min) pharyngeal pain
[3]; IN naloxone at 2 and 4 mg to both nostrils
  Nasal irritation (erythema, edema, erosion, other sign in the nasal cavity): No erythema, edema, erosion, or other sign was observed
[3]; Study 1
  QTcF prolongation: no evidence of QTcF prolongation
[3]; after naloxone administration, Study 1
  Vital signs, ECG, and clinical laboratory parameters: did not reveal any clinically noteworthy changes
[4]
  Cmax (predicted by Wermeling): 3 to 5 ng/mL
  tmax (predicted by Wermeling): approximately 20 minutes
Overdose events; 399 overdose events where naloxone was used, participant-reported
  overdose events reversed: 89%
Overdose events; take-home naloxone
  participants reporting serious adverse effects: < 1%
Opiate addicts
  effectiveness of nasal administration compared with intravenous route: as effective as the intravenous route
[5]; IN group (2 mg), 33 of 50
  Clinical response noted: 66%
[5]; IN group
  mean time between naloxone administration and clinical response: 12.9 min
  patients who received two doses of naloxone: 34%
[5]; IV group, 58 of 104
  Clinical response noted: 56%
[5]; IV group
  mean time between naloxone administration and clinical response: 8.1 min
  patients who received two doses of naloxone: 18%
Heroin overdose; 2 mg IM naloxone, 69/89
  rate of response within 10 minutes: 77.5%
Heroin overdose; 2 mg IN naloxone, 60/83
  rate of response within 10 minutes: 72.3%
Heroin overdose; IM naloxone
  patients administered supplementary naloxone: 4.5%
Heroin overdose; IN naloxone
  mean response time: 8.0 min
Heroin overdose; IV naloxone
  mean response time: 7.9 min
[6]; 0.4 mg Intramuscular Dose
  Dizziness (adverse events): 1
  Headache (adverse events): 1
  Nausea (adverse events): 1
[6]; 2 mg (20 mg/mL, one spray)
  Edema (events related to nasal irritation): 2
  Erythema (events related to nasal irritation): 4
  Nasal Pain (adverse events): 1
  Other (events related to nasal irritation): 1
  Total (events related to nasal irritation): 7
[6]; 4 mg (20 mg/mL, two sprays)
  Edema (events related to nasal irritation): 0
  Erythema (events related to nasal irritation): 1
  Other (events related to nasal irritation): 0
  Total (events related to nasal irritation): 1
[6]; 4 mg (40 mg/mL, one spray)
  Edema (events related to nasal irritation): 2
  Erythema (events related to nasal irritation): 1
  Other (events related to nasal irritation): 0
  Total (events related to nasal irritation): 3
[6]; 8 mg (40 mg/mL, two sprays)
  Edema (events related to nasal irritation): 1
  Erythema (events related to nasal irritation): 0
  Headache (adverse events): 1
  Other (events related to nasal irritation): 0
  Total (events related to nasal irritation): 1
[6]; 2 to 8 mg IN
  Relation of nasal irritation to the dose of naloxone given: did not appear to be positively related to the dose
[6]; Study 2
  QTcF prolongation: no evidence of QTcF prolongation
[6]; after naloxone administration, Study 2
  Vital signs, ECG, and clinical laboratory parameters: did not reveal any clinically noteworthy changes
[6]; nasal or intramuscular administration, Study 2
  Adverse events overall: few adverse events were reported
0.4 mg IM
  AUC % Extrapolate, mean (% CV): 2.32 (54.1) %
  Lambda z (harmonic mean): 0.5534 h⁻¹
0.4 mg IM, Female
  Lambda z (harmonic mean): 0.6140 h⁻¹
0.4 mg IM, Male
  Lambda z (harmonic mean): 0.5152 h⁻¹
One 20 mg/mL IN, Female
  Lambda z (harmonic mean): 0.3978 h⁻¹
One 20 mg/mL IN, Male
  Lambda z (harmonic mean): 0.3492 h⁻¹
One 40 mg/mL IN, Female
  Lambda z (harmonic mean): 0.2946 h⁻¹
One 40 mg/mL IN, Male
  Lambda z (harmonic mean): 0.3386 h⁻¹
One Spray - 2 mg 20 mg/mL IN
  AUC % Extrapolate, mean (% CV): 1.09 (41.9) %
  Lambda z (harmonic mean): 0.3685 h⁻¹
One Spray - 4 mg 40 mg/mL IN
  AUC % Extrapolate, mean (% CV): 1.06 (52.5) %
  Lambda z (harmonic mean): 0.3182 h⁻¹
Two 20 mg/mL IN, Female
  Lambda z (harmonic mean): 0.2796 h⁻¹
Two 20 mg/mL IN, Male
  Lambda z (harmonic mean): 0.3122 h⁻¹
Two 40 mg/mL IN, Female
  Lambda z (harmonic mean): 0.2994 h⁻¹
Two 40 mg/mL IN, Male
  Lambda z (harmonic mean): 0.3407 h⁻¹
Two Sprays - 4 mg 20 mg/mL IN
  AUC % Extrapolate, mean (% CV): 1.01 (53.9) %
  Lambda z (harmonic mean): 0.2973 h⁻¹
Two Sprays - 8 mg 40 mg/mL IN
  AUC % Extrapolate, mean (% CV): 1.04 (78.1) %
  Lambda z (harmonic mean): 0.3217 h⁻¹
[7]; naloxone 0.4 mg IV
  mean interval from EMS arrival to a respiratory rate of ≧10 breaths/min: 9.3 ± 4.2 min
[7]; naloxone 0.8 mg SQ
  mean interval from EMS arrival to a respiratory rate of ≧10 breaths/min: 9.6 ± 4.58 min
clinical; [8]
  AUC(0-t): 1.35 ng·h/mL
  AUC(0-inf): 1.39 ng·h/mL
clinical; im, 0.4 mg, Mean, 0.4 mg IM
  AUC(0-t): 1.38 ng·h/mL
  AUC(0-inf): 1.42 ng·h/mL
  Tmax: 20.3 min
clinical; im, 0.4 mg, GLSM, 0.4 mg IM
  Tmax: 18.5 min
clinical; [9]
  AUC(0-t): 3.28 ng·h/mL
  AUC(0-inf): 3.32 ng·h/mL
clinical; [10]
  AUC(0-t): 3.41 ng·h/mL
  AUC(0-inf): 3.44 ng·h/mL
  Tmax: 20 min
clinical; other: intranasal, 2 mg, GLSM, 2 mg IN
  Tmax: 20 min
clinical; [11]
  AUC(0-t): 5.41 ng·h/mL
  AUC(0-inf): 5.47 ng·h/mL
clinical; [12]
  AUC(0-t): 5.63 ng·h/mL
  AUC(0-inf): 5.68 ng·h/mL
  Tmax: 18.4 min
clinical; other: intranasal, 4 mg, GLSM, 4 mg IN
  Tmax: 17.5 min
